Laboratory results reported in patent US20030104603A1, “Protein” (priority 2001, published 2003).

System: mouse EST cluster TC20248 (CitE homolog gene) in white adipose tissue
Assay: Affymetrix GeneChip analysis of white adipose tissue mRNA from β3-agonist treated mice
Format: in vivo
Details: male C57B1/6J mice, CL 316,243 1 mg/kg injected every 12 h, 2 doses, white adipose tissue collected at 24 h, versus saline control, Mu19K GeneChips
Experimental: Male C57B1/6J mice, 12 weeks old, were housed under conditions of ambient temperature and free access to water and chow. Either the β3-selective agonist CL 316,243 (1mg/kg) or saline was injected every 12h with 2 doses during a total period of 24 hours. The animals were decapitated 24 h after the experiment was started, and the white adipose tissue was quickly collected and immediately frozen into liquid nitrogen.
PolyA^+ mRNAs were extracted from white adipose tissue from control and β3-agonist treated mice respectively. They were reverse transcribed using a T7-tagged oligo-dT primer and double-stranded cDNAs were generated. These cDNAs were then amplified and labeled using In vitro transcription (IVT) with T7 RNA polymerase and biotinylated nucleotides. The populations of cRNAs obtained after IVT were purified and fragmented by heat to produce a distribution of RNA fragment sizes from approximately 35 to 200 bases. […] The cartridges were scanned using a Hewlett-Packard confocal scanner and the images were analyzed with the GeneChip 3.1 software (Affymetrix). The identity of the genes represented on the Affymetrix GeneChips was assessed by performing searches using BLAST (Altschul et al., J. Molec. Biol., 1990, 215, 403-410), which is incorporated herein by reference in its entirety) on available protein sequence databanks. […]

SMILES: C[C@H](Cc1ccc2c(c1)OC(C(=O)[O-])(C(=O)[O-])O2)NC[C@H](O)c1cccc(Cl)c1.[Na+].[Na+] [CL 316,243]
- transcriptional change of the CitE homolog gene (TIGR Mouse Gene Index TC20248): down-regulated
- transcriptional change of the CitE homolog gene (TIGR Mouse Gene Index TC20248) (listed as β3-agonist): downregulated by a factor of two
